Test results as given in US10919916B2, “Boron-containing small molecules” (Bill & Melinda Gates Foundation, priority 2016, dated 2021).
Values after ≈ are worked out from the molar mass of the structure shown.

How the values were obtained:
Assay type in all cases: cell-based
[1] = system: Streptococcus pneumoniae (ATCC 49619); assay: Antibacterial MIC assay (microbroth dilution, CLSI); details: ATCC49619, microbroth dilution, 3% lysed horse blood, 35° C. for 16-20 hours, read-out: MIC Streptococcus pneumoniae (ATCC 49619)
How it was run: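 S. pneumoniae at 5×10^5 CFU/mL (from 0.5 McFarland saline suspension) was tested against 2-fold serial compound dilutions in cation-adjusted Mueller-Hinton broth plus 3% lysed horse blood, per CLSI M07-A10/M100-S25 microdilution guidelines.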

[2] = system: Staphylococcus aureus, MRSA (ATCC 33591); assay: as above; details: microbroth dilution, cation-adjusted Mueller-Hinton broth, 35° C. for 16-20 hours, read-out: MIC Staphylococcus aureus, MRSA (ATCC 33591)
How it was run: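 Compound 2-fold dilution series tested against 5×10^5 CFU/mL bacteria prepared from 0.5 McFarland saline suspensions of overnight colonies. Medium was cation-adjusted Mueller-Hinton broth, supplemented with 3% lysed horse blood for the fastidious pneumococcus. Protocol followed CLSI M07-A10 and M100-S25.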

[3] = system: Wolbachia pipientis in C6/36 cell line; assay: Anti-Wolbachia high-content assay; details: C6/36 (wAlbB) cells, 7 days at 26° C., 50% reduction of Wolbachia, read-out: EC50 Wolbachia pipientis in C6/36 cell line
How it was run: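 Wolbachia-infected C6/36 cells stained 15 minutes, then medium replaced and five fields per well imaged confocally at 60× with fluorescein filters. Each intact cell scored on cytoplasmic texture complexity.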

MIC [1] [µg/mL] | MIC [2] [µg/mL] | EC50 [3] [nM] | SMILES
4 to 32 (≈ 7.82 to 62.6 µM) | 0.5 to 2 (≈ 0.978 to 3.91 µM) | > 1000 | C=C[C@]1(C)C[C@@H](OC(=O)COc2cnc3c(c2)B(O)OC3)[C@]2(C)[C@H](C)CC[C@]3(CCC(=O)[C@H]32)[C@@H](C)[C@@H]1O [Compound 101, (3aR,4R,5R,7S,8S,9R,9aS,12R)-8-hydroxy-4,7,9,12-tetramethyl-3-oxo-7-vinyldecahydro-4,9a-propanocyclopenta[8]annulen-5-yl 2-((1-hydroxy-1,3-dihydro-[1,2]oxaborolo[4,3-b]pyridin-6-yl)oxy)acetate]
> 64 | > 64 | > 1000 | C=C[C@]1(C)C[C@@H](OC(=O)CNc2cnc3c(c2)B(O)OC3)[C@]2(C)[C@H](C)CC[C@]3(CCC(=O)[C@H]32)[C@@H](C)[C@@H]1O [Compound 102, (3aR,4R,5R,7S,8S,9R,9aS,12R)-8-hydroxy-4,7,9,12-tetramethyl-3-oxo-7-vinyldecahydro-4,9a-propanocyclopenta[8]annulen-5-yl (1-hydroxy-1,3-dihydro-[1,2]oxaborolo[4,3-b]pyridin-6-yl)glycinate]
< 0.25 | < 0.25 | 419 | C=C[C@]1(C)C[C@@H](OC(=O)COc2ccc(C3=CCOB3O)cc2)[C@]2(C)[C@H](C)CC[C@]3(CCC(=O)[C@H]32)[C@@H](C)[C@@H]1O [Compound 103, (3aR,4R,5R,7S,8S,9R,9aS,12R)-8-hydroxy-4,7,9,12-tetramethyl-3-oxo-7-vinyldecahydro-4,9a-propanocyclopenta[8]annulen-5-yl 2-(4-(2-hydroxy-2,5-dihydro-1,2-oxaborol-3-yl)phenoxy)acetate]
